Data as given in publication PMC12395308 (ACS Central Science, 2025).
In brackets after ≈: the same amount, converted by molar mass. Blank lines part the entries; values can stand above or below the compound they belong to.

Tests used:
[1] = Aqueous solubility in Tris HCl buffer (pH 7.4), shake flask method; details: 37 °C, pH 7.4, aqueous buffer, thermodynamic from solid
[2] = Comparative pharmacokinetic analysis after a single intravenous dose
[3] = Derivatization-based quantification of hydrazine in mice plasma using LC-MS; details: for plasma concentration of in vivo released Hz: post 24hrs of 6th dose, repetitive oral dosing for six days; for plasma level of released Hz: single oral dose (10 mg/kg INH or equivalent), all time points 0.083–24 h
[4] = Stomach homogenate conversion assay; type: in vitro ADME, mice; details: 50 μg/mL
[5] = Lipophilicity (logD) by shake flask method
[6] = system: pyridoxal and pyridoxal-5′-phosphate; assay: Quantification of pyridoxal and pyridoxal-5-phosphate in mice liver; details: repeat-dose study; INH 90 mg/kg, 1d 117.5 mg/kg
[7] = In vivo plasma exposure after repetitive single oral dosing for 10 consecutive days; details: for eAUC20m–6h (AcHz): 10th dose, oral, molar equivalent of 10 mg/kg INH
[8] = Mouse liver homogenate conversion assay; type: in vitro ADME
[9] = Bioconversion of prodrugs in plasma, ex vivo (human); details: 200 μg/mL
[10] = Chemical stability in neat DMSO (UV spectrophotometer); details: post 24 h of incubation
[11] = Human liver microsomal stability analysis; details: for percentage of 1d/INH remaining after 2 h of incubation, human liver microsomes: 50 μM, 1 mg/mL microsomes, 1 mM NADPH
[12] = In vivo plasma exposure after a single oral dose (RACE-PK); details: single oral dose 10 mg/kg
[13] = Aqueous stability in acidic and basic buffer (HPLC); details: post 24 h of incubation; for chemical stability, pH (7.6): percentage of parent remaining: basic buffer
[14] = Bioconversion of prodrugs in plasma, ex vivo (mice); details: 200 μg/mL
[15] = Comparative plasma exposure after a single oral dose at three incremental dose levels; details: for concentration at 2 h / concentration at 6 h: Balb/C, mouse, plasma, po; for plasma concentration of INH (mean): oral 1mg/Kg
[16] = Complete pharmacokinetic analysis after a single oral dose; details: for plasma level of AcHz formed in vivo: all time points 0.083–24 h
[17] = Intestinal homogenate conversion assay; type: in vitro ADME, mice; details: 50 μg/mL
[18] = Balb/C, mouse, plasma, iv, 1 mg/kg
[19] = Balb/C, mouse, plasma, po, 10 mg/kg of INH (prodrugs at molar equivalent)

solubility at 24 h ([1]; Tris HCl buffer): 18.6 mg/mL | AUC [2, 18]: 18 ± 1 ng·h/mL | Cmax [2, 18]: 90 ± 5 ng/mL | Tmax [2, 18]: 4.8 min | Vd [2, 18]: 21 L/kg | clearance [2, 18]: 1780 mL/min/kg | concentration at 0.33 h [2, 18]: 53.6 ng/mL | plasma concentration of released AcINH (mean) ([2]; single IV dose, 0.33 h): BLQ | plasma concentration of released INA (mean) ([2]; single IV dose, 0.33 h): BLQ | plasma concentration of released AcINH (mean) ([2]; single IV dose, 1 h): BLQ | plasma concentration of released INA (mean) ([2]; single IV dose, 1 h): BLQ | plasma concentration of unchanged 1d (mean) ([2]; single IV dose, 1 h): BLQ | plasma concentration of released AcINH (mean) ([2]; single IV dose, 2 h): BLQ | plasma concentration of released INA (mean) ([2]; single IV dose, 2 h): BLQ | plasma concentration of unchanged 1d (mean) ([2]; single IV dose, 2 h): BLQ | plasma concentration of released AcINH (mean) ([2]; single IV dose, 4 h): BLQ | plasma concentration of released INA (mean) ([2]; single IV dose, 4 h): BLQ | plasma concentration of unchanged 1d (mean) ([2]; single IV dose, 4 h): BLQ | plasma concentration of released AcINH (mean) ([2]; single IV dose, 6 h): BLQ | plasma concentration of released INA (mean) ([2]; single IV dose, 6 h): BLQ | plasma concentration of unchanged 1d (mean) ([2]; single IV dose, 6 h): BLQ | plasma concentration of released AcINH (mean) ([2]; single IV dose, 8 h): BLQ | plasma concentration of released INA (mean) ([2]; single IV dose, 8 h): BLQ | plasma concentration of unchanged 1d (mean) ([2]; single IV dose, 8 h): BLQ | plasma concentration of released AcINH (mean) ([2]; single IV dose, 24 h): BLQ | plasma concentration of released INA (mean) ([2]; single IV dose, 24 h): BLQ | plasma concentration of unchanged 1d (mean) ([2]; single IV dose, 24 h): BLQ | AUC5m–24h, released AcINH ([2]; single IV dose, INH 1 mg/kg or molar equivalent): no AcINH was observed and BLQ | plasma concentration of in vivo released Hz [3]: BLQ | plasma level of released Hz [3]: BLQ | eAUC0–20h in stomach homogenate, prodrug ([4]; 20 h): 433,081 ng·h/mL | percentage of prodrug remaining after 20 h of incubation, stomach homogenate ([4]; ex vivo): 3% | logD [5]: 0.2 | liver tissue levels of pyridoxal and pyridoxal-5′-phosphate [6]: comparable | eAUC20m–6h (AcHz) [7]: BLQ ^d | feed intake per cage ([7]; day 0, cage of n=3): 11 g | feed intake per cage ([7]; day 1, cage of n=3): 11.5 g | feed intake per cage ([7]; day 2, cage of n=3): 10.5 g | feed intake per cage ([7]; day 3, cage of n=3): 10 g | feed intake per cage ([7]; day 4, cage of n=3): 11 g | feed intake per cage ([7]; day 5, cage of n=3): 14.5 g | feed intake per cage ([7]; day 6, cage of n=3): 12 g | feed intake per cage ([7]; day 7, cage of n=3): 12 g | feed intake per cage ([7]; day 8, cage of n=3): 13.5 g | feed intake per cage ([7]; day 9, cage of n=3): 12.5 g | feed intake per cage ([7]; day 10, cage of n=3): 12.5 g | percentage of 1d remaining after 2 h of incubation, mouse liver homogenate ([8]; 37 °C): 27% | eAUC5–120m of 1d, mouse liver homogenate ([8]; 2 h incubation): 261,525 ng·h/mL | % of prodrug remaining at 20 h, human plasma ([9]; 37 °C, ex vivo): 40.1% | eAUC20m–20h in human plasma, prodrug ([9]; 20 h ex vivo incubation): 1196 ± 308 ng·h/mL | chemical stability, DMSO: percentage of parent remaining [10]: 100.0% | percentage of 1d/INH remaining after 2 h of incubation, human liver microsomes [11]: 77% | eAUC0–120m of 1d, human liver microsomes ([11]; 2 h incubation): 80,176 ng·h/mL | plasma concentration of AcINH at 20 min [12]: BLQ | chemical stability, pH (7.6): percentage of parent remaining [13]: 100.0% | % of prodrug remaining at 20 h, mice plasma ([14]; 37 °C, ex vivo): 23.8% | eAUC20m–20h in mice plasma, prodrug ([14]; 20 h ex vivo incubation): 987 ± 154 ng·h/mL | concentration at 2 h ([15]; 1 mg/kg): 332 ng/mL | concentration at 6 h ([15]; 1 mg/kg): 146 ng/mL | concentration at 2 h ([15]; 3 mg/kg): 578 ng/mL | concentration at 6 h ([15]; 3 mg/kg): 151 ng/mL | concentration at 2 h ([15]; 10 mg/kg): 2030 ng/mL | concentration at 6 h ([15]; 10 mg/kg): 217 ng/mL | eAUC20m–6h (unchanged 1d) ([15]; single oral dose 1 mg/kg): 2916 ± 1005 ng·h/mL | eAUC20m–6h (unchanged 1d) ([15]; single oral dose 3 mg/kg): 5799 ± 858 ng·h/mL | eAUC20m–6h (unchanged 1d) ([15]; single oral dose 10 mg/kg): 20,138 ± 2821 ng·h/mL | concentration at 0.33 h [16, 19]: 18700 ng/mL | concentration at 1 h [16, 19]: 10400 ng/mL | concentration at 2 h [16, 19]: 4620 ng/mL | concentration at 4 h [16, 19]: 942 ng/mL | concentration at 6 h [16, 19]: 347 ng/mL | concentration at 24 h [16, 19]: 152 ng/mL | plasma concentration of released AcINH (mean) ([16]; single oral dose, 0.33 h): BLQ | plasma concentration of released AcINH (mean) ([16]; single oral dose, 1 h): BLQ | plasma concentration of released AcINH (mean) ([16]; single oral dose, 2 h): BLQ | plasma concentration of released AcINH (mean) ([16]; single oral dose, 4 h): BLQ | plasma concentration of released INA (mean) ([16]; single oral dose, 4 h): BLQ | plasma concentration of free INH (mean) ([16]; single oral dose, 6 h): BLQ | plasma concentration of released AcINH (mean) ([16]; single oral dose, 6 h): BLQ | plasma concentration of released INA (mean) ([16]; single oral dose, 6 h): BLQ | plasma concentration of free INH (mean) ([16]; single oral dose, 24 h): BLQ | plasma concentration of released AcINH (mean) ([16]; single oral dose, 24 h): BLQ | plasma concentration of released INA (mean) ([16]; single oral dose, 24 h): BLQ | AUC5m–24h, released AcINH ([16]; single oral dose, INH 10 mg/kg or molar equivalent): BLQ | Vd, unchanged prodrug ([16]; single oral dose, molar equivalent of 10 mg/kg INH): 1121 ± 345 mL/kg | plasma level of AcHz formed in vivo ([16]; single oral dose): BLQ | eAUC0–20h in intestinal homogenate, prodrug ([17]; 20 h): 728,889 ng·h/mL | percentage of prodrug remaining after 20 h of incubation, intestine homogenate ([17]; ex vivo): 87%
Compound: CC(C)OC(=O)NNC(=O)c1ccncc1.Cl [prodrug 1d]
plasma eAUC20m–120m (AcINH) ([12]; n=3, 10 mg/kg): BLQ and below the limit of quantification and BLQ ^d

Compound: NNC(=O)c1ccncc1 [INH, Isoniazid, reference compound]
solubility at 24 h [1]: 610 mg/mL (≈ 4450 mM) | plasma concentration of released INA (mean) ([2]; single IV dose, 0.33 h): BLQ | plasma concentration of released INA (mean) ([2]; single IV dose, 1 h): BLQ | plasma concentration of released AcINH (mean) ([2]; single IV dose, 2 h): BLQ | plasma concentration of released INA (mean) ([2]; single IV dose, 2 h): BLQ | plasma concentration of released AcINH (mean) ([2]; single IV dose, 4 h): BLQ | plasma concentration of released INA (mean) ([2]; single IV dose, 4 h): BLQ | plasma concentration of released AcINH (mean) ([2]; single IV dose, 6 h): BLQ | plasma concentration of released INA (mean) ([2]; single IV dose, 6 h): BLQ | plasma concentration of released AcINH (mean) ([2]; single IV dose, 8 h): BLQ | plasma concentration of released INA (mean) ([2]; single IV dose, 8 h): BLQ | plasma concentration of released AcINH (mean) ([2]; single IV dose, 24 h): BLQ | plasma concentration of released INA (mean) ([2]; single IV dose, 24 h): BLQ | plasma concentration of in vivo released Hz [3]: BLQ | plasma level of released Hz [3]: BLQ | logD [5]: -0.8 | liver tissue levels of pyridoxal and pyridoxal-5′-phosphate [6]: comparable | eAUC20m–6h (AcHz) [7]: BLQ ^d | feed intake per cage ([7]; day 0, cage of n=3): 9 g | feed intake per cage ([7]; day 1, cage of n=3): 13 g | feed intake per cage ([7]; day 2, cage of n=3): 11 g | feed intake per cage ([7]; day 3, cage of n=3): 9 g | feed intake per cage ([7]; day 4, cage of n=3): 11.5 g | feed intake per cage ([7]; day 5, cage of n=3): 15.5 g | feed intake per cage ([7]; day 6, cage of n=3): 13.5 g | feed intake per cage ([7]; day 7, cage of n=3): 14 g | feed intake per cage ([7]; day 8, cage of n=3): 14 g | feed intake per cage ([7]; day 9, cage of n=3): 15 g | feed intake per cage ([7]; day 10, cage of n=3): 15 g | chemical stability, DMSO: percentage of parent remaining [10]: 100.0% | percentage of 1d/INH remaining after 2 h of incubation, human liver microsomes [11]: 66% | chemical stability, pH (3.0): percentage of parent remaining ([13]; acidic buffer): 100.0% | chemical stability, pH (7.6): percentage of parent remaining [13]: 100.0% | plasma concentration of INH (mean) ([15]; 2 h): BLQ | plasma concentration of INH (mean) ([15]; 6 h): BLQ | plasma concentration of released INA (mean) ([16]; single oral dose, 4 h): BLQ | plasma concentration of free INH (mean) ([16]; single oral dose, 6 h): BLQ | plasma concentration of released AcINH (mean) ([16]; single oral dose, 6 h): BLQ | plasma concentration of released INA (mean) ([16]; single oral dose, 6 h): BLQ | plasma concentration of free INH (mean) ([16]; single oral dose, 24 h): BLQ | plasma concentration of released AcINH (mean) ([16]; single oral dose, 24 h): BLQ | plasma concentration of released INA (mean) ([16]; single oral dose, 24 h): BLQ | plasma level of AcHz formed in vivo ([16]; single oral dose): BLQ
